Measurements published in patent US20150147385A1, “INTRAVENOUS SYNTHETIC CURCUMIN (S-CURCUMIN) FOR THE TREATMENT OF PROLIFERATIVE DISORDERS” (SignPath Pharma, Inc., priority 2013, published 2015).
In brackets after ≈: the same amount, converted by molar mass. Like-named read-outs stand apart in the source and are kept apart here.

Assays:
[1] = Solubilities of S-curcumin and C3-complex curcumin in different organic solvents; format: physicochemical; conditions: for solubility: organic solvent or mixture, read-out: Conc. (solubility)
Source text: Comparison of PLGA C3-complex-curcumin vs PLGA S-curcumin indicated the following differences. The solubilities of 99.2% S-Curcumin in all four solvents. […] This confers improved manufacturing capability, and attributes to different pharmacokinetics and pharmacodynamics in in vivo settings (Table 1). [table]

[2] = test system: breast cancer cell line MCF10ACA1H; assay: Scratch assay (wound healing) in MCF10ACA1H; format: cell-based, human; conditions: 12 hour exposure

SMILES: COc1cc(C=CC(=O)CC(=O)C=Cc2ccc(O)c(OC)c2)ccc1O [S-curcumin, 1,7-bis(4-hydroxy-3-methoxyphenyl)-1,6-heptadiene-3,5-dione]
- Solubility compared with C3 complex ([1]; normalized to equal concentrations, ethanol, ethyl acetate, acetone, acetonitrile): greater solubility
- solubility ([1]; solvent acetone): 42300 µg/mL (≈ 115 mM)
- solubility ([1]; solvent acetonitrile): 5440 µg/mL (≈ 14.8 mM)
- solubility ([1]; solvent ethanol): 3800 µg/mL (≈ 10.3 mM)
- solubility ([1]; solvent ethyl acetate): 10400 µg/mL (≈ 28.2 mM)
- 1 g of solvent solubilize in solvent ([1]; solvent acetone): 23.6 mL
- Physical appearance of solubility ([1]; solvent acetone): Fully
- 1 g of solvent solubilize in solvent ([1]; solvent acetonitrile): 184 mL
- Physical appearance of solubility ([1]; solvent acetonitrile): Partial
- 1 g of solvent solubilize in solvent ([1]; solvent ethanol): 263 mL
- Physical appearance of solubility ([1]; solvent ethanol): Partial
- 1 g of solvent solubilize in solvent ([1]; solvent ethyl acetate): 96.2 mL
- Physical appearance of solubility ([1]; solvent ethyl acetate): Partial
- More effective than C3-curcumin in interfering with wound healing [2]: 30%
